# Data published in US10933074B2, “Methods for improving the gastrointestinal tolerance of food and beverage products comprising sweet, low-digestible carbohydrates” (Tate & Lyle Ingredients Americas LLC, priority 2015, dated 2021).
# System: volunteers
# Design: species or system human
# Conditions: in vivo
# Protocol: In this Example, subjects tested 4 different beverages, consumed in the morning with at least one week washout between test days. The beverages were consumed on an empty stomach, and there was instruction for subjects to wait 2 hours before having any other food. The primary outcome was the total gastrointestinal symptom scores over 24-hours for loose stool GI symptom derived from a GI symptoms rating diary. The 4 test beverages (8 oz./236.6 ml) were flavoured with a strawberry mix and contained: 1) 25 g of D-allulose; 2) 25 g of D-allulose and 25 g of D-glucose; 3) 25 g of D-allulose and 1 g of beta-glucan fiber; or 4) 25 g of sucrose. […] On the day of the test, the subjects followed the below set of instructions: • 1. Testing start times begin when you start consuming the drink; record date and time you begin on the diary. • 2. Consume the test drink at the same time each week. • a. Consume the entire drink 8 oz. (236.6 ml) drink in under 15 minutes. • b. Refill the drink container with water and consume as a chaser. • c. You may have additional water after 60 minutes as desired. • 3. Record GI symptom scores at 2, 4 and 24-hours after starting drink consumption. • 4. You may eat a snack or breakfast 2 hours after the test drink. • 5. Record all bowel movements and the Bristol Stool type during the 24-hour observation period. • 6. Resume normal food consumption for the day; however avoid foods which you know may cause gastric upset or gas for the 24-hour observation period. […] The Bristol Stool test scores were scored from 1-7. […]
structure (smiles),measurement,value
O=C(CO)[C@H](O)[C@H](O)[C@H](O)CO [D-allulose],number of people reporting symptoms,greatest
same,order of softer stools,allulose>allulose+beta-glucan>allulose+D-glucose>sucrose
same,"stool softening (Bristol Stool test score, 24 hour average)",softening effect
